Test results as given in patent EP0723539B1, “TRICYCLIC SULFONAMIDE COMPOUNDS USEFUL FOR INHIBITION OF G-PROTEIN FUNCTION AND FOR TREATMENT OF PROLIFERATIVE DISEASES” (SCHERING CORPORATION, priority 1993, dated 1995).

Columns and labels:
[1] = biological target: T1, farnesyl protein transferase (FPT) (Rattus norvegicus, UniProt Q02293+Q04631); test: In vitro enzyme assay: inhibition of farnesyl protein transferase (transfer of [3H]farnesyl to Ras-CVLS); format: biochemical
T1 construct: partially purified rat brain farnesyl protein transferase (FPT); from tissue; host or cells: rat brain
Source text: (§1) Both farnesyl protein transferase (FPT) and geranylgeranyl protein transferase (GGPT) I were partially purified from rat brain by ammonium sulfate fractionation followed by Q-Sepharose (Pharmacia, Inc.) anion exchange chromatography essentially as described by Yokoyama et al (Yokoyama, K., et al., (1991), A protein geranylgeranyltransferase from bovine brain: Implications for protein prenylation specificity, Proc. Natl. Acad. Sci USA 88: 5302-5306, the disclosure of which is incorporated herein by reference thereto). Two forms of val^12-Ha-Ras protein were prepared as substrates for these enzymes, differing in their carboxy terminal sequence. One form terminated in cysteine-valine-leucine-serine (Ras-CVLS) the other in cystein-valine-leucine-leucine (Ras-CVLL). […]
Several methods for measuring farnesyl protein transferase activity have been described (Reiss et al 1990, Cell 62: 81; Schaber et al 1990, J. Biol. Chem. 265: 14701; Manne et al 1990, PNAS 87: 7541; and Barbacid & Manne 1993, U.S. Patent No. 5,185,248). […] Filter mats were washed once with 6% TCA, 2% SDS and radioactivity was measured in a Wallac 1204 Betaplate BS liquid scintillation counter. Percent inhibition was calculated relative to the DMSO vehicle control.

Ras-CVLS processing = test: Cell-based assay: Ras processing in Ras-transfected COS cells (immunoblot); set-up: species or system monkey; conditions: read-out: INHIBITION OF Ras PROCESSING IC50
Procedure: COS monkey kidney cells were transfected by electroporation with the plasmid pSV-SPORT (Gibco/BRL) containing a cDNA insert encoding either Ras-CVLS or Ras-CVLL, leading to transient overexpression of a Ras substrate for either farnesyl protein transferase or geranylgeranyl protein transferase I, respectively (see above).
Following electroporation, cells were plated into 6-well tissue culture dishes containing 1.5 ml of Dulbecco's-modified Eagle's media (GIBCO, Inc.) supplemented with 10% fetal calf serum and the appropriate farnesyl protein transferase inhibitors. After 24 hours, media was removed and fresh media containing the appropriate drugs was re-added. […]
Membranes were blocked by incubation overnight at 4°C in PBS containing 2.5% dried milk and 0.5% Tween-20 and then incubated with a Ras-specific monoclonal antibody, Y13-259 (Furth, M.E., et al., (1982), Monoclonal antibodies to the p21 products of the transforming gene of Harvey murine sarcome virus and of the cellular ras gene family, J. Virol. 43: 294-304), in PBS containing 1% fetal calf serum for one hour at room temperature. […] The presence of processed and unprocessed Ras-CVLS or Ras-CVLL was detected using a colorimetric peroxidase reagent (4-chloro-1-naphthol) as described by the manufacturer (Bio-Rad).

[2] = system: T24-BAG4 human bladder carcinoma cells expressing an activated H-ras gene; test: Cell Mat assay: inhibition of tumor cell growth; format: cell-based
Procedure: (§2) Normal human HEPM fibroblasts were planted in 3.5 cm dishes at a density of 5 x 10^4 cells/dish in 2 ml growth medium, and incubated for 3-5d to achieve confluence. Medium was aspirated from each dish and the indicator tumor cells, T24-BAG4 human bladder carcinoma cells expressing an activated H-ras gene, were planted on top of the fibroblast monolayer at a density of 2 x 10^3cells/dish in 2 ml growth medium, and allowed to attach overnight. Compound-induced colony inhibition was assayed by addition of serial dilutions of compound directly to the growth medium 24 h after tumor cell planting, and incubating cells for an additional 14 d to allow colony formation. Assays were terminated by rinsing monolayers twice with phosphate-buffered saline (PBS), fixing the monolayers with a 1% glutaraldehyde solution in PBS, then visualizing tumor cells by staining with X-Gal (Price, J., et al., Lineage analysis in the vertebrate nervous system by retrovirus-mediated gene transfer, Proc. Natl. Acad. Sci.84, 156-160(1987)). […] The therapeutic index of the compound was quantitatively expressed as the ratio of mIC50/tIC50, with values greater than one indicative of tumor target specificity.

[3] = system: Normal human HEPM fibroblasts; test: Cell Mat assay: inhibition of normal cell growth (cell mat); format: cell-based; conditions: Fibroblast, normal cell monolayer
Procedure: as §2

[4] = biological target: T2, geranylgeranyl protein transferase (GGPT) I (Rattus norvegicus, UniProt P53610+Q04631); test: In vitro enzyme assay: inhibition of geranylgeranyl protein transferase I (Ras-CVLL as acceptor); format: biochemical; conditions: Ras-CVLL as isoprenoid acceptor, read-out: inhibits GGPT
T2 construct: geranylgeranyl protein transferase (GGPT) I were partially purified from rat brain; from tissue; host or cells: rat brain
Source text: as §1, with “(Ras-CVLL). Ras-CVLS is a substrate for the famesyl protein transferase while Ras-CVLL is a substrate for geranylgeranyl protein transferase I. The cDNAs encoding these proteins were constructed so that the proteins contain an amino-terminal extension of 6 histidine residues. Both proteins were expressed in Escherichia coli and purified using metal chelate affinity chromatography. The radiolabelled isoprenyl pyrophosphate substrates, [3H]farnesyl pyrophosphate and [^3H]geranylgeranyl pyrophosphate, were purchased from DuPont/New England Nuclear.” for “(Ras-CVLL).”

FPT IC50 ([1]; partially purified rat brain FPT, Ras-CVLS farnesylation) | IC50 (Ras-CVLS processing) | IC50 ([2]; Homo sapiens, Ras-transformed tumor cells) | selective for FPT inhibition ([1]; FPT versus GGPT) | inhibition at 42 µM [4] | SMILES | IC50 [3] | antiproliferative activity against Ras-transformed cells (in words) [2]
0.01 to 10 µM | 0.01 to 10 µM | 6.3 µM |  |  | C=CS(=O)(=O)N1CCC(=C2c3ccc(Cl)cc3CCc3cccnc32)CC1 [Compound 2.9] | 25 µM | 
 |  |  | at least 32 fold | 14% | O=S(=O)(Cc1ccccc1)N1CCC(=C2c3ccc(Cl)cc3CCc3cccnc32)CC1 [Compound 2.12] |  | only weak antiproliferative activity
